Experimental data published in ChEMBL document CHEMBL1201862, “PubChem BioAssay data set” (2004).
Active and inactive are the calls of the source. No stated cut-off is given here; in the data, actives have a measured IC50 and inactives only a lower limit.

Biological target: Envelope glycoprotein gp160 (Human immunodeficiency virus 1, UniProt Q6QLK5)
Assay: cell-free HIV fusion peptide-binding blockers – biochemical, uHTS, fluorescence dequenching, […] (AID 1986)

Envelope glycoprotein gp160, sequence (Q6QLK5 whole entry, the tested form may be a part): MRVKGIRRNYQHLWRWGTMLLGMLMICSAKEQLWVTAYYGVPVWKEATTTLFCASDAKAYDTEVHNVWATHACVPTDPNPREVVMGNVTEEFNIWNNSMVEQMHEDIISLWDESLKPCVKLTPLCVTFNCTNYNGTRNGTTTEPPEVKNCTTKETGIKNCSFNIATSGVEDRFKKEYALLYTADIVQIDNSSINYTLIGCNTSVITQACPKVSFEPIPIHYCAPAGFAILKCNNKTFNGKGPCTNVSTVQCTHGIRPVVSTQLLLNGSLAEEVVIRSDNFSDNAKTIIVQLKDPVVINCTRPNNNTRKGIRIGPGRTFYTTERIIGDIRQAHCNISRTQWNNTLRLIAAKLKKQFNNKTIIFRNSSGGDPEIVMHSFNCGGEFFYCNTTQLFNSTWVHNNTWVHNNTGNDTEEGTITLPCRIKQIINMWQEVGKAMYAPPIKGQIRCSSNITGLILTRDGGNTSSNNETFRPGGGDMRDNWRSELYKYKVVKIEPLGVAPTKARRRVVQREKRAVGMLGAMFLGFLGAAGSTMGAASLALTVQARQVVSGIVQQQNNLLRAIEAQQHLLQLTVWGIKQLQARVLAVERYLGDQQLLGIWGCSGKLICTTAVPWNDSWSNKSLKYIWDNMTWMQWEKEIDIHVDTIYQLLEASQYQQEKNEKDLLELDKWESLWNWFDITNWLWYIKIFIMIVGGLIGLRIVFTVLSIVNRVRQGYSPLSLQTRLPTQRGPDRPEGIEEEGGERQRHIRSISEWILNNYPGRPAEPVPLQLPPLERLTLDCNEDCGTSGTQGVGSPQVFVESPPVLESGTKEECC

COc1cc(/C=N/NC(=O)C(Cc2c[nH]c3ccccc23)NC(=O)OCc2ccccc2)cc([N+](=O)[O-])c1O (stereo not given)
IC50: 17.2 µM (active)

O=C(O)c1[nH]c2ccccc2c1C(c1cc(Cl)cc([N+](=O)[O-])c1O)c1c(C(=O)O)[nH]c2ccccc12
IC50: 2.55 µM (active)

O=C(O)C1Nc2c(cccc2C(F)(F)F)C2C=CCC12 (stereo not given)
IC50: 12.7 µM (active)

COc1cc(/C=N/NS(=O)(=O)c2ccc3ccccc3c2)ccc1OCc1ccc(C(=O)O)cc1
IC50: 27 µM (active)

CCC(Sc1nc2ccsc2c(=O)n1Cc1ccc(C(=O)O)cc1)C(=O)Nc1ccc(C)c(Cl)c1 (stereo not given)
IC50: 20 µM (active)
